Laboratory results taken from US20220009967A1, “Isolation and Semi-Synthesis of Rufomycin Analogs” (THE BOARD OF TRUSTEES OF THE UNIVERSITY OF ILLINOIS, priority 2020, published 2022).
Converted amounts (≈) assume the structure as drawn. Read-outs that look alike come from different tables or passages of the source.

Tests used:
M. tuberculosis = experiment: MIC against M. tuberculosis, microplate Alamar Blue assay (MABA); format: cell-based, Mycobacterium tuberculosis; set-up: MIC90: unit not given beside the values; details: for MIC90: MABA, Table 3, unit not given; for anti-M.tb potency relative to rifampin and isoniazid (in words): MIC data of Table 3
Description: MICs against M. tuberculosis. The MIC was defined as the minimum concentration of the compound required to achieve a reduction in fluorescence by 90% relative to the untreated bacterial controls. The anti-TB activity was determined by the microplate Alamar Blue assay (MABA) as previously described (Choules et al., Antimicrob. Agents Chemother. 2019, 63, e02204-02218).

Mycobacterial ClpC1 FL = biological target: T1, Mycobacterial ClpC1 FL (Mycobacterium tuberculosis, UniProt P9WPC9); experiment: SPR binding affinity to ClpC1 full-length protein (FL)
T1 construct: N-terminal domain (NTD) and the full-length protein (FL) by surface plasmon resonance (SPR)
T1 sequence (P9WPC9 whole entry, the tested form may be a part): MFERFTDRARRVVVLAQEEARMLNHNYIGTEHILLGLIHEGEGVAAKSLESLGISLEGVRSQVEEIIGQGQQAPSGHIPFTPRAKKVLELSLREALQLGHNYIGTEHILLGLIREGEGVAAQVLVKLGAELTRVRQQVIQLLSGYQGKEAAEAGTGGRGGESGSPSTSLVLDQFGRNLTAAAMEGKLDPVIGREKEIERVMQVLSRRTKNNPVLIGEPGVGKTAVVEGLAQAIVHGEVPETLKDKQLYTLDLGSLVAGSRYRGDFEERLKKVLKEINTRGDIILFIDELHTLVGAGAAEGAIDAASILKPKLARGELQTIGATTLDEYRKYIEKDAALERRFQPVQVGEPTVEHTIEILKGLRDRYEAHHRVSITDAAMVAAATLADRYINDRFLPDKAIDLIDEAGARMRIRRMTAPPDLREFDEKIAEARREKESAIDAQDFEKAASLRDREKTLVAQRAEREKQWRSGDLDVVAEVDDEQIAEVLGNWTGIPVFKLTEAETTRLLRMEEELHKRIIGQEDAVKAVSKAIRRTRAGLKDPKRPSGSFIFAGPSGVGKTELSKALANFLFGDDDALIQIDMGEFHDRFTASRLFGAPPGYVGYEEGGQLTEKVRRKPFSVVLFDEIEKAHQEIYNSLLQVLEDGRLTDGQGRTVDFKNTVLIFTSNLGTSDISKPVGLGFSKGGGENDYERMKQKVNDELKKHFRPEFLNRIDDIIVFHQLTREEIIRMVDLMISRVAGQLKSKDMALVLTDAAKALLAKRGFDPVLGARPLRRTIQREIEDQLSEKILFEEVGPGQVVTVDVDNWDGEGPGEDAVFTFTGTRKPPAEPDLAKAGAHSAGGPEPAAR
Description: (§1) Analysis of binding affinity to Mycobacterial ClpC1-NTD and FL by SPR. SPR binding assay was performed using a previously reported method (Choules et al., Antimicrob. Agents Chemother. 2019, 63, e02204-02218; Wolf et al., ACS Infect. Dis. 2019, 5, 829-840). Kinetic rate constants (ka and kd) were determined by fitting the double-reference data globally to the 1:1 Langmuir model embedded in the Biacore T200 evaluation software (v3.0). KD values were then calculated from the two rate constants (KD=kd/ka). Smaller KD values represent tighter binding affinities.

Mycobacterial ClpC1-NTD = biological target: T2, Mycobacterial ClpC1-NTD (Mycobacterium tuberculosis, UniProt P9WPC9); experiment: SPR binding affinity to ClpC1-NTD
T2 construct: caseinolytic protein C1 (ClpC1) N-terminal domain (NTD)
Description: as §1

[1] = Interconversion (epimerization) of rufomycin diastereomers, HPLC analysis; format: physicochemical; details: for interconversion / stability of diastereomers (in words): HPLC analysis, hemi-aminal epimers
From the text: The rufomycins 32-35 were identified as four diastereomers, arising from different orientations of the hydroxyl and methyl groups in the hydroxy-methyl piperidinone moiety. Rufomycin 32 was assigned the (AA5, 4S,5R) absolute configuration based on the ROESY correlations, and further confirmed by the cocrystal structures of rufomycin 32 and ClpC1-NTD. Thus, rufomycin 32 is that congener previously identified as ilamycin, Compound 4, and ilamycin C1 (PCT/US2000/015044). […] The assigned 4S,5S (AA5) absolute configuration for rufomycin 33 was validated by the ROESY correlations. Rufomycin 34 with the absolute configuration 4R,5R (AA5) was established by the ROESY cross-peaks. […] After being purified by semi-prep HPLC, rufomycin 35 was concentrated under a stream of forced air and freeze drying to reduce interconversion.

[2] = ClpC1 full-length protein, KD=kd/ka, Table 1, read-out: SPR KD FL
[3] = ClpC1 N-terminal domain, KD=kd/ka, Table 1, read-out: SPR KD NTD
[4] = SPR, ClpC1 full-length protein, Table 3, unit inferred, read-out: KD FL
[5] = SPR, ClpC1 N-terminal domain, Table 3, unit inferred, read-out: KD NTD

SMILES | MIC (M. tuberculosis; Mycobacterium tuberculosis) | Kd (Mycobacterial ClpC1 FL; [2]) | Kd (Mycobacterial ClpC1-NTD; [3]) | also measured
C/C=C/C[C@@H]1NC(=O)[C@H](CC(C)C)N2C(=O)[C@H](CC(C)[C@H]2OCC)N(C)C(=O)[C@H](C)NC(=O)[C@H](Cc2ccc(O)c([N+](=O)[O-])c2)NC(=O)[C@H](CC(C)C)N(C)C(=O)[C@H](Cc2cn(C(C)(C)[C@H](O)CCl)c3ccccc23)NC1=O (stereo partly shown) [Compound 8] | 0.244 ± 0.0271 µM (≈ 0.27 µg/mL) | 0.142 µM | 0.12 µM | –
C/C=C/C[C@@H]1NC(=O)[C@H](CC(C)C)N2C(=O)[C@H](CC(C)[C@H]2OC)N(C)C(=O)[C@H](C)NC(=O)[C@H](Cc2ccc(O)c([N+](=O)[O-])c2)NC(=O)[C@H](CC(C)C)N(C)C(=O)[C@H](Cc2cn(C(C)(C)[C@H](O)COC)c3ccccc23)NC1=O (stereo partly shown) [Compound 4] | 0.0064 ± 0.0018 µM (≈ 0.00697 µg/mL) | 0.0799 µM | 0.0885 µM | –
C/C=C/C[C@@H]1NC(=O)[C@H](CC(C)C)N2C(=O)[C@H](CC(C)[C@H]2OC)N(C)C(=O)[C@H](C)NC(=O)[C@H](Cc2ccc(O)c([N+](=O)[O-])c2)NC(=O)[C@H](CC(C)C)N(C)C(=O)[C@H](Cc2cn(C(C)(C)[C@H]3CO3)c3ccccc23)NC1=O (stereo partly shown) [Compound 6] | – | 0.0317 µM | 0.103 µM | increase in activity compared to rufomycin analogues 1 and 2 (M. tuberculosis; MIC ratio, in words): ten-fold increase in activity; MIC (M. tuberculosis; text summary of Table 1, unit not given): 1.9
C/C=C/C[C@@H]1NC(=O)[C@H](CC(C)C)N2C(=O)[C@H](CC(C)[C@H]2O)N(C)C(=O)[C@H](C)NC(=O)[C@H](Cc2ccc(OC(C)=O)c([N+](=O)[O-])c2)NC(=O)[C@H](CC(C)C)N(C)C(=O)[C@H](Cc2cn(C(C)(C)[C@H]3CO3)c3ccccc23)NC1=O (stereo partly shown) [Compound 25] | 0.0184 ± 0.006 µM (≈ 0.02 µg/mL) | 0.0725 µM | 0.056 µM | –
C/C=C/C[C@@H]1NC(=O)[C@H](CC(C)C)N2C=C(C)C[C@@H](C2=O)N(C)C(=O)[C@H](C)NC(=O)[C@H](Cc2ccc(OC(=O)c3ccccc3)c([N+](=O)[O-])c2)NC(=O)[C@H](CC(C)C)N(C)C(=O)[C@H](Cc2cn(C(C)(C)[C@H](O)CCl)c3ccccc23)NC1=O [Compound 17] | 0.0529 µM (≈ 0.0616 µg/mL) | – | – | Kd (Mycobacterial ClpC1 FL): 2.03 µM; Kd (Mycobacterial ClpC1-NTD): 1.25 µM
NNC(=O)c1ccncc1 [INH, isoniazid, reference compound] | – | – | – | MIC90 (M. tuberculosis): 463
C/C=C/C[C@@H]1NC(=O)[C@H](CC(C)C)N2C(=O)[C@H](CC(C)[C@H]2O)N(C)C(=O)[C@H](C)NC(=O)[C@H](Cc2ccc(O)c([N+](=O)[O-])c2)NC(=O)[C@H](CC(C)C)N(C)C(=O)[C@H](Cc2cn(C(C)(C)[C@H](O)CCl)c3ccccc23)NC1=O (stereo partly shown) [Compound 7] | 0.0464 ± 0.0046 µM (≈ 0.0501 µg/mL) | 0.116 µM | 0.114 µM | –
C/C=C/C[C@@H]1NC(=O)[C@H](CC(C)C)N2C=C(C)C[C@@H](C2=O)N(C)C(=O)[C@H](C)NC(=O)[C@H](Cc2ccc(O)c(N)c2)NC(=O)[C@H](CC(C)C)N(C)C(=O)[C@H](Cc2cn(C(C)(C)[C@H](O)CCl)c3ccccc23)NC1=O [Compound 19] | 0.887 µM (≈ 0.914 µg/mL) | 0.319 µM | 0.501 µM | –
C/C=C/C[C@@H]1NC(=O)[C@H](CC(C)C)N2C(=O)[C@H](CC(C)[C@H]2OCCC)N(C)C(=O)[C@H](C)NC(=O)[C@H](Cc2ccc(O)c([N+](=O)[O-])c2)NC(=O)[C@H](CC(C)C)N(C)C(=O)[C@H](Cc2cn(C(C)(C)[C@H](O)CCl)c3ccccc23)NC1=O (stereo partly shown) [Compound 10] | 0.75 ± 0.0107 µM (≈ 0.84 µg/mL) | 0.143 µM | 0.0907 µM | –
C/C=C/C[C@@H]1NC(=O)[C@H](CC(C)C)N2C(=O)[C@H](C[C@H](C)[C@H]2O)N(C)C(=O)[C@H](C)NC(=O)[C@H](Cc2ccc(O)c([N+](=O)[O-])c2)NC(=O)[C@H](CC(C)C)N(C)C(=O)[C@H](Cc2cn(C(C)(C)[C@H]3CO3)c3ccccc23)NC1=O [rufomycin 32] | – | – | – | MIC90 (M. tuberculosis): 21; anti-M.tb potency relative to rifampin and isoniazid (in words) (M. tuberculosis): higher potency than drugs rifampin and isoniazid; interconversion / stability of diastereomers (in words) [1]: interconvertible; Kd (Mycobacterial ClpC1 FL; [4]): 0.031 µM; Kd (Mycobacterial ClpC1-NTD; [5]): 0.032 µM
C/C=C/C[C@@H]1NC(=O)[C@H](CC(C)C)N2C(=O)[C@H](CC(C)[C@H]2OC)N(C)C(=O)[C@H](C)NC(=O)[C@H](Cc2ccc(O)c([N+](=O)[O-])c2)NC(=O)[C@H](CC(C)C)N(C)C(=O)[C@H](Cc2cn(C(C)(C)[C@H](O)CCl)c3ccccc23)NC1=O (stereo partly shown) [Compound 5] | – | 0.163 µM | 0.123 µM | –
C/C=C/C[C@@H]1NC(=O)[C@H](CC(C)C)N2C(=O)[C@H](C[C@H](C)[C@@H]2O)N(C)C(=O)[C@H](C)NC(=O)[C@H](Cc2ccc(O)c([N+](=O)[O-])c2)NC(=O)[C@H](CC(C)C)N(C)C(=O)[C@H](Cc2cn(C(C)(C)[C@H]3CO3)c3ccccc23)NC1=O [rufomycin 33] | – | – | – | MIC90 (M. tuberculosis): 12; anti-M.tb potency relative to rifampin and isoniazid (in words) (M. tuberculosis): higher potency than drugs rifampin and isoniazid; interconversion / stability of diastereomers (in words) [1]: interconvertible; Kd (Mycobacterial ClpC1 FL; [4]): 0.027 µM; Kd (Mycobacterial ClpC1-NTD; [5]): 0.029 µM
C/C=C/C[C@@H]1NC(=O)[C@H](CC(C)C)N2C(=O)[C@H](C[C@@H](C)[C@H]2O)N(C)C(=O)[C@H](C)NC(=O)[C@H](Cc2ccc(O)c([N+](=O)[O-])c2)NC(=O)[C@H](CC(C)C)N(C)C(=O)[C@H](Cc2cn(C(C)(C)[C@H]3CO3)c3ccccc23)NC1=O [rufomycin 34] | – | – | – | MIC90 (M. tuberculosis): 46; conversion to rufomycin 35 ([1]; under aqueous conditions, slowly): ~5%; Kd (Mycobacterial ClpC1 FL; [4]): 0.178 µM; Kd (Mycobacterial ClpC1-NTD; [5]): 0.183 µM
CO[C@H]1/C=C/O[C@@]2(C)Oc3c(C)c(O)c4c(O)c(c(/C=N/N5CCN(C)CC5)c(O)c4c3C2=O)NC(=O)/C(C)=C\C=C\[C@H](C)[C@H](O)[C@@H](C)[C@@H](O)[C@@H](C)[C@H](OC(C)=O)[C@@H]1C [RMP, rifampin, reference compound] | – | – | – | MIC90 (M. tuberculosis): 28
C/C=C/C[C@@H]1NC(=O)[C@H](CC(C)C)N2C(=O)[C@H](CC(C)[C@H]2O)N(C)C(=O)[C@H](C)NC(=O)[C@H](Cc2ccc(OC)c([N+](=O)[O-])c2)NC(=O)[C@H](CC(C)C)N(C)C(=O)[C@H](Cc2cn(C(C)(C)[C@H]3CO3)c3ccccc23)NC1=O (stereo partly shown) [Compound 29] | 0.0543 µM (≈ 0.0574 µg/mL) | 0.133 µM | 0.117 µM | –
C/C=C/C[C@@H]1NC(=O)[C@H](CC(C)C)N2C(=O)[C@H](CC(C)[C@H]2OC)N(C)C(=O)[C@H](C)NC(=O)[C@H](Cc2ccc(OC)c([N+](=O)[O-])c2)NC(=O)[C@H](CC(C)C)N(C)C(=O)[C@H](Cc2cn(C(C)(C)[C@H]3CO3)c3ccccc23)NC1=O (stereo partly shown) [Compound 30] | 0.0058 µM (≈ 0.00621 µg/mL) | 0.0751 µM | 0.0555 µM | –
C/C=C/C[C@@H]1NC(=O)[C@H](CC(C)C)N2C=C(C)C[C@@H](C2=O)N(C)C(=O)[C@H](C)NC(=O)[C@H](Cc2ccc(OC)c([N+](=O)[O-])c2)NC(=O)[C@H](CC(C)C)N(C)C(=O)[C@H](Cc2cn(C(C)(C)[C@H]3CO3)c3ccccc23)NC1=O [Compound 16] | 0.0726 µM (≈ 0.0754 µg/mL) | 0.883 µM | 0.58 µM | –
C/C=C/C[C@@H]1NC(=O)[C@H](CC(C)C)N2C(=O)[C@H](CC(C)[C@H]2OC(C)=O)N(C)C(=O)[C@H](C)NC(=O)[C@H](Cc2ccc(OC(C)=O)c([N+](=O)[O-])c2)NC(=O)[C@H](CC(C)C)N(C)C(=O)[C@H](Cc2cn(C(C)(C)[C@H]3CO3)c3ccccc23)NC1=O (stereo partly shown) [Compound 26] | 0.0089 ± 0.0036 µM (≈ 0.01 µg/mL) | 0.016 µM | 0.0338 µM | –
C/C=C/C[C@@H]1NC(=O)[C@H](CC(C)C)N2C(=O)[C@H](CC(C)[C@H]2OC)N(C)C(=O)[C@H](C)NC(=O)[C@H](Cc2ccc(OC)c([N+](=O)[O-])c2)NC(=O)[C@H](CC(C)C)N(C)C(=O)[C@H](Cc2cn(C(C)(C)[C@H]3CO3)c3ccccc23)N(C)C1=O (stereo partly shown) [Compound 24] | 0.0646 µM (≈ 0.07 µg/mL) | 0.513 µM | 0.451 µM | –
C/C=C/C[C@@H]1NC(=O)[C@H](CC(C)C)N2C=C(C)C[C@@H](C2=O)N(C)C(=O)[C@H](C)NC(=O)[C@H](Cc2ccc(OC(C)=O)c([N+](=O)[O-])c2)NC(=O)[C@H](CC(C)C)N(C)C(=O)[C@H](Cc2cn(C(C)(C)[C@H](O)CCl)c3ccccc23)NC1=O [Compound 15] | 0.0224 µM (≈ 0.0247 µg/mL) | 0.513 µM | 0.317 µM | –
C/C=C/C[C@@H]1NC(=O)[C@H](CC(C)C)N2C=C(C)C[C@@H](C2=O)N(C)C(=O)[C@H](C)NC(=O)[C@H](Cc2ccc(O)c([N+](=O)[O-])c2)NC(=O)[C@H](CC(C)C)N(C)C(=O)[C@H](Cc2cn(C(C)(C)[C@H](O)CCl)c3ccccc23)NC1=O [Compound 3] | 0.0188 ± 0.004 µM (≈ 0.0199 µg/mL) | 0.0971 µM | 0.0823 µM | –
C/C=C/C[C@@H]1NC(=O)[C@H](CC(C)C)N2C=C(C)C[C@@H](C2=O)N(C)C(=O)[C@H](C)NC(=O)[C@H](Cc2ccc3c(c2)N=C(C)CC(C)(C)O3)NC(=O)[C@H](CC(C)C)N(C)C(=O)[C@H](Cc2cn(C(C)(C)[C@H](O)CCl)c3ccccc23)NC1=O [Compound 20] | 0.782 µM (≈ 0.869 µg/mL) | 0.234 µM | 0.196 µM | –
